Test: Numerical simulations (Comsol Multiphysics) of small-molecule concentration dynamics with porous beads and conical microwells
Conditions: 225 μm diameter beads

## O=C1OC2(c3ccc(O)cc3Oc3cc(O)ccc32)c2ccccc21 [fluorescein]
  diffusion coefficient in the bead, Db, corresponding to measured t1/2: 0.125 μm^2/s
